Experimental data reported in patent US10047098B2, “C5-C6-oxacyclic fused iminopyrimidinone compounds as bace inhibitors, compositions, and their use” (Merck Sharp & Dohme Corp., priority 2014, dated 2018).
pKi: −log10 of the molar value.

Assays:
[1] = biological target: Recombinant human soluble BACE1 catalytic domain (Homo sapiens (Human), UniProt P56817); test: BACE1 HTRF FRET Assay; type: biochemical; settings: Ki calculated from IC50 using the Cheng-Prusoff equation; QSY7-APPswe-Eu substrate, pH 5.0; read-out: BACE-1 Ki
Sequence of Recombinant human soluble BACE1 catalytic domain (P56817 75-416): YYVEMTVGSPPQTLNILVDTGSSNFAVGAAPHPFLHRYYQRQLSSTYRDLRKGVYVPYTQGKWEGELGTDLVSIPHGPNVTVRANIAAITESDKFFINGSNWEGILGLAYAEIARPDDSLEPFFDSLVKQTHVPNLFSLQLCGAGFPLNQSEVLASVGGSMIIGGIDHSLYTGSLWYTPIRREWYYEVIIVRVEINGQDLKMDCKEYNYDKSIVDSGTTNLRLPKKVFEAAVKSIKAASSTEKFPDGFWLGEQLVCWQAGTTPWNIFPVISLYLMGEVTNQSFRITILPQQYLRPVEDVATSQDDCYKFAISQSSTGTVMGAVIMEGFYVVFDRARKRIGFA
Source text: Reagents: Na^+-Acetate pH 5.0; 1% Brij-35; Glycerol; Dimethyl Sulfoxide (DMSO); Recombinant human soluble BACE1 catalytic domain (>95% pure); APP Swedish mutant peptide substrate (QSY7-APP^swe-Eu): QSY7-EISEVNLDAEFC-Europium-amide.
A homogeneous time-resolved FRET assay can be used to determine IC50 values for inhibitors of the soluble human BACE1 catalytic domain. This assay monitors the increase of 620 nm fluorescence that resulted from BACE1 cleavage of an APPswedish APP^swe mutant peptide FRET substrate (QSY7-EISEVNLDAEFC-Europium-amide). This substrate contains an N-terminal QSY7 moiety that serves as a quencher of the C-terminal Europium fluorophore (620 nm Em). In the absence of enzyme activity, 620 nm fluorescence is low in the assay and increased linearly over 3 hours in the presence of uninhibited BACE1 enzyme. Inhibition of BACE1 cleavage of the QSY7-APP^swe-Eu substrate by inhibitors is manifested as a suppression of 620 nm fluorescence.
Varying concentrations of inhibitors at 3× the final desired concentration in a volume of 10 ul are preincubated with purified human BACE1 catalytic domain (3 nM in 10 μl) for 30 minutes at 30° C. in reaction buffer containing 20 mM Na-Acetate pH 5.0, 10% glycerol, 0.1% Brij-35 and 7.5% DSMO. Reactions are initiated by addition of 10 μl of 600 nM QSY7-APP^swe-Eu substrate (200 nM final) to give a final reaction volume of 30 μl in a 384 well Nunc HTRF plate. The reactions are incubated at 30° C. for 1.5 hours. The 620 nm fluorescence is then read on a Rubystar HTRF plate reader (BMG Labtechnologies) using a 50 millisecond delay followed by a 400 millisecond acquisition time window. Inhibitor IC50 values are derived from non-linear regression analysis of concentration response curves. Ki values are then calculated from IC50 values using the Cheng-Prusoff equation using a previously determined […] of 8 μM for the QSY7-APP^swe-Eu substrate at BACE1.

[2] = biological target: purified human autoBACE-2 (Homo sapiens (Human), UniProt Q9Y5Z0); test: BACE-2 Assay (BACE-HTRF assay); type: biochemical; settings: Ki calculated from IC50 using the Cheng-Prusoff equation; QSY7-EISEVNLDAEFC-Eu-amide substrate, pH 5.0
Sequence of purified human autoBACE-2 (Q9Y5Z0 63-473 limits assumed): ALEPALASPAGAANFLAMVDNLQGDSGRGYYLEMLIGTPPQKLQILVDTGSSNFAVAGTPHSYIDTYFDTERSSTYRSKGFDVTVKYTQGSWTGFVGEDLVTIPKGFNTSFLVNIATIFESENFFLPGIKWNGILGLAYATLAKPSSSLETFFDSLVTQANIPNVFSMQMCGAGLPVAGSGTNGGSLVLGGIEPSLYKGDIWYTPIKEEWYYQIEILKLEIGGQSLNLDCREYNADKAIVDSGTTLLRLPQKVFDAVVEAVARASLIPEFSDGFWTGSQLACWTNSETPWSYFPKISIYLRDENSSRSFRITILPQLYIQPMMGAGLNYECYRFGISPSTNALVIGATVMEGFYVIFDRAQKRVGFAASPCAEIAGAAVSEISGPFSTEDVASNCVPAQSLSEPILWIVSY
Protocol: Inhibitor IC50s at purified human autoBACE-2 are determined in a time-resolved endpoint proteolysis assay that measures hydrolysis of the QSY7-[…]-Eu-amide FRET peptide substrate (BACE-HTRF assay). […] DMSO is present at 5% final concentration in the assay. Following laser excitation of sample wells at 320 nm, the fluorescence signal at 620 nm is collected for 400 ms following a 50 μs delay on a RUBYstar HTRF plate reader (BMG Labtechnologies). Raw RFU data is normalized to maximum (1.0 nM BACE/DMSO) and minimum (no enzyme/DMSO) RFU values. […] The Ki values are calculated from the IC50 using the Cheng-Prusoff equation.

Q: `COC[C@H]1C[C@H]2C(=O)N(C)C(=N)N[C@@]2(c2ccc(F)cc2F)CO1` [Example 1, (4aR,6R,8aS)-8a-(2,4-difluorophenyl)-2-imino-6-(methoxymethyl)-3-methylhexahydro-1H-pyrano[3,4-d]pyrimidin-4(4aH)-one] was tested. Which pKi [1] did it give?
A: 6.20

Q: And the pKi [2]?
A: 6.63

Q: `COC[C@H]1C[C@H]2C(=O)N(C)C(=N)N[C@@]2(c2cc(Oc3cc(C#N)ccn3)c(F)cc2F)CO1` [Example 2, 2-(2,4-difluoro-5-((4aR,6R,8aS)-2-imino-6-(methoxymethyl)-3-methyl-4-oxohexahydro-1H-pyrano[3,4-d]pyrimidin-8a(8H)-yl)phenoxy)isonicotinonitrile] was tested. Which pKi [1] did it give?
A: 8.52

Q: And the pKi [2]?
A: 7.96

Q: How did the pKi [1] turn out when `COC[C@H]1C[C@H]2C(=O)N(C)C(=N)N[C@@]2(c2cc(Oc3ncccc3F)c(F)cc2F)CO1` [Example 3, (4aR,6R,8aS)-8a-(2,4-difluoro-5-((3-fluoropyridin-2-yl)oxy)phenyl)-2-imino-6-(methoxymethyl)-3-methylhexahydro-1H-pyrano[3,4-d]pyrimidin-4(4aH)-one] was run?
A: 9.00

Q: And the pKi [2]?
A: 8.52

Q: With `COC[C@H]1C[C@H]2C(=O)N(C)C(=N)N[C@@]2(c2cc(Oc3cc(OC)ccn3)c(F)cc2F)CO1` [Example 4, (4aR,6R,8aS)-8a-(2,4-difluoro-5-((4-methoxypyridin-2-yl)oxy)phenyl)-2-imino-6-(methoxymethyl)-3-methylhexahydro-1H-pyrano[3,4-d]pyrimidin-4(4aH)-one] as the compound, how does the pKi [1] read?
A: 7.70

Q: What about the pKi [2] of the same compound?
A: 7.21

Q: What does the source list for `COC[C@H]1C[C@H]2C(=O)N(C)C(=N)N[C@@]2(c2cc(OCC3CC3)c(F)cc2F)CO1` [Example 5, (4aR,6R,8aS)-8a-(5-(cyclopropylmethoxy)-2,4-difluorophenyl)-2-imino-6-(methoxymethyl)-3-methylhexahydro-1H-pyrano[3,4-d]pyrimidin-4(4aH)-one]?
A: pKi [1]: 7.17; pKi [2]: 7.09

Q: How did the pKi [1] turn out when `CN1C(=N)N[C@@]2(c3ccc(F)cc3F)CO[C@@H](C3CC3)C[C@H]2C1=O` [Example 6, (4aR,6R,8aS)-6-cyclopropyl-8a-(2,4-difluorophenyl)-2-imino-3-methylhexahydro-1H-pyrano[3,4-d]pyrimidin-4(4aH)-one] was run?
A: 7.00

Q: And the pKi [2]?
A: 6.58

Q: With `CN1C(=N)N[C@@]2(c3ccc(F)cc3F)CO[C@@H](C(F)F)C[C@H]2C1=O` [Example 7, (4aR,6R,8aS)-6-(difluoromethyl)-8a-(2,4-difluorophenyl)-2-imino-3-methylhexahydro-1H-pyrano[3,4-d]pyrimidin-4(4aH)-one] as the compound, how does the pKi [1] read?
A: 6.51

Q: And the pKi [2]?
A: 6.60

Q: How did the pKi [1] turn out when `Cc1cc([C@H]2C[C@H]3C(=O)N(C)C(=N)N[C@@]3(c3cc(F)ccc3F)CO2)on1` [Example 8, (4aR,6R,8aS)-8a-(2,5-difluorophenyl)-2-imino-3-methyl-6-(3-methylisoxazol-5-yl)hexahydro-1H-pyrano[3,4-d]pyrimidin-4(4aH)-one] was run?
A: 6.88

Q: And the pKi [2]?
A: 7.47

Q: What does the source list for `C[C@H]1C[C@H]2C(=O)N(C)C(=N)N[C@@]2(c2cc(Oc3cc(C#N)ccn3)c(F)cc2F)CO1` [Example 9, 2-(2,4-difluoro-5-((4aR,6S,8aS)-2-imino-3,6-dimethyl-4-oxohexahydro-1H-pyrano[3,4-d]pyrimidin-8a(8H)-yl)phenoxy)isonicotinonitrile]?
A: pKi [1]: 8.70; pKi [2]: 8.40

Q: `C[C@H]1C[C@H]2C(=O)N(C)C(=N)N[C@@]2(c2cc(Oc3ncccc3F)c(F)cc2F)CO1` [Example 10, (4aR,6S,8aS)-8a-(2,4-difluoro-5-((3-fluoropyridin-2-yl)oxy)phenyl)-2-imino-3,6-dimethylhexahydro-1H-pyrano[3,4-d]pyrimidin-4(4aH)-one] was tested. Which pKi [1] did it give?
A: 8.40

Q: And the pKi [2]?
A: 8.70

Q: With `C[C@H]1C[C@H]2C(=O)N(C)C(=N)N[C@@]2(c2ccc(F)cc2F)CO1` [Example 11, (4aR,65,8aS)-8a-(2,4-difluorophenyl)-2-imino-3,6-dimethylhexahydro-1H-pyrano[3,4-d]pyrimidin-4(4aH)-one] as the compound, how does the pKi [1] read?
A: 6.96

Q: And the pKi [2]?
A: 6.98

Q: How did the pKi [1] turn out when `CN1C(=N)N[C@@]2(c3cc(Oc4cc(-n5cccn5)ncn4)ccc3F)CO[C@@H](C3CC3)C[C@H]2C1=O` [Example 13, (4aR,6R,8aS)-8a-(5-((6-(1H-pyrazol-1-yl)pyrimidin-4-yl)oxy)-2-fluorophenyl)-6-cyclopropyl-2-imino-3-methylhexahydro-1H-pyrano[3,4-d]pyrimidin-4(4aH)-one] was run?
A: 7.28

Q: What about the pKi [2] of the same compound?
A: 7.64

Q: With `CN1C(=N)N[C@@]2(c3cc(Oc4cc(C#N)ccn4)ccc3F)CO[C@@H](C3CC3)C[C@H]2C1=O` [Example 14, 2-(3-((4aR,6R,8aS)-6-cyclopropyl-2-imino-3-methyl-4-oxohexahydro-1H-pyrano[3,4-d]pyrimidin-8a(8H)-yl)-4-fluorophenoxy)isonicotinonitrile] as the compound, how does the pKi [1] read?
A: 8.70

Q: And the pKi [2]?
A: 7.89

Q: What does the source list for `CN1C(=N)N[C@@]2(c3cc(Oc4ncccc4F)ccc3F)CO[C@@H](C3CC3)C[C@H]2C1=O` [Example 15, (4aR,6R,8aS)-6-cyclopropyl-8a-(2-fluoro-5-((3-fluoropyridin-2-yl)oxy)phenyl)-2-imino-3-methylhexahydro-1H-pyrano[3,4-d]pyrimidin-4(4aH)-one]?
A: pKi [1]: 8.70; pKi [2]: 8.10

Q: What does the source list for `CN1C(=N)N[C@@]2(c3cc(Oc4ccnc(-n5cncn5)c4)ccc3F)CO[C@@H](C3CC3)C[C@H]2C1=O` [Example 16, (4aR,6R,8aS)-8a-(5-((2-(1H-1,2,4-triazol-1-yl)pyridin-4-yl)oxy)-2-fluorophenyl)-6-cyclopropyl-2-imino-3-methylhexahydro-1H-pyrano[3,4-d]pyrimidin-4(4aH)-one]?
A: pKi [1]: 7.37; pKi [2]: 7.38

Q: `Cc1cncc(Oc2ccc(F)c([C@]34CO[C@@H](C5CC5)C[C@H]3C(=O)N(C)C(=N)N4)c2)n1` [Example 17, (4aR,6R,8aS)-6-cyclopropyl-8a-(2-fluoro-5-((6-methylpyrazin-2-yl)oxy)phenyl)-2-imino-3-methylhexahydro-1H-pyrano[3,4-d]pyrimidin-4(4aH)-one] was tested. Which pKi [1] did it give?
A: 7.92

Q: And the pKi [2]?
A: 6.99

Q: Which results are given for `CN1C(=N)N[C@@]2(c3cc(Oc4ncc(F)cc4F)ccc3F)CO[C@@H](C3CC3)C[C@H]2C1=O` [Example 18, (4aR,6R,8aS)-6-cyclopropyl-8a-(5-((3,5-difluoropyridin-2-yl)oxy)-2-fluorophenyl)-2-imino-3-methylhexahydro-1H-pyrano[3,4-d]pyrimidin-4(4aH)-one]?
A: pKi [1]: 7.96; pKi [2]: 6.96

Q: What does the source list for `C[C@H]1C[C@H]2C(=O)N(C)C(=N)N[C@@]2(c2cc(Oc3ncccc3F)ccc2F)CO1` [Example 19, (4aR,6S,8aS)-8a-(2-fluoro-5-((3-fluoropyridin-2-yl)oxy)phenyl)-2-imino-3,6-dimethylhexahydro-1H-pyrano[3,4-d]pyrimidin-4(4aH)-one]?
A: pKi [1]: 8.15; pKi [2]: 8.30

Q: `CN1C(=N)N[C@@]2(c3cc(Oc4ccnc(C(F)F)c4)ccc3F)CO[C@@H](C3CC3)C[C@H]2C1=O` [Example 20] was tested. Which pKi [1] did it give?
A: 7.22

Q: And the pKi [2]?
A: 6.64

Q: What does the source list for `C[C@H]1C[C@H]2C(=O)N(C)C(=N)N[C@@]2(c2cc(Oc3cc(C#N)ccn3)ccc2F)CO1` [Example 21, 2-(4-fluoro-3-((4aR,6S,8aS)-2-imino-3,6-dimethyl-4-oxohexahydro-1H-pyrano[3,4-d]pyrimidin-8a(8H)-yl)phenoxy)isonicotinonitrile]?
A: pKi [1]: 8.22; pKi [2]: 8.22

Q: Which results are given for `Cc1nccc(Oc2ccc(F)c([C@]34CO[C@@H](C5CC5)C[C@H]3C(=O)N(C)C(=N)N4)c2)n1` [Example 22, (4aR,6R,8aS)-6-cyclopropyl-8a-(2-fluoro-5-((2-methylpyrimidin-4-yl)oxy)phenyl)-2-imino-3-methylhexahydro-1H-pyrano[3,4-d]pyrimidin-4(4aH)-one]?
A: pKi [1]: 7.24; pKi [2]: 6.74

Q: `C[C@H]1C[C@H]2C(=O)N(C)C(=N)N[C@@]2(c2cc(OCC3CC3)ccc2F)CO1` [Example 23, (4aR,6S,8aS)-8a-(5-(cyclopropylmethoxy)-2-fluorophenyl)-2-imino-3,6-dimethylhexahydro-1H-pyrano[3,4-d]pyrimidin-4(4aH)-one] was tested. Which pKi [1] did it give?
A: 7.89

Q: And the pKi [2]?
A: 8.10
